Reference: a melting point compilation (Tetko et al.; mined from patent text by program, amines drawn as free bases though some values may be those of a salt)

`Cc1cn([C@H]2C=C[C@@H](O)C2)c(=O)nc1N` (racemic) gave a melting point of 190 to 192 °C.
Work on `CCOC(=O)c1ncc2[nH]c3cccc(OC4CCC4)c3c2c1COC` yielded a melting point of 196 to 197 °C.
Compound `CCOC(=O)C1=C(C)NC(CO)=C(C(=O)OCC)C1c1ccccc1Cl` (stereo unspecified) has a melting point of 143 °C.
Work on `C=C(C)CC(O)C(Br)(Br)Br` (stereo unspecified) yielded a melting point of 64 to 65 °C.
Work on `CCCC(=Cc1ccccc1)CN1CCc2nc(N)sc2CC1` yielded a melting point of 77 to 80 °C.
`O=C(O)COc1cc2c(c(Cl)c1Cl)C(=O)CCC2` showed a melting point of 250 to 252 °C.
`CCc1nc2c(N)nc3ccccc3c2n1CCOCCNC(=O)c1ccccc1` showed a melting point of 188 to 191 °C.
For `C=CC(=O)Oc1cccc(-c2ccc3cc(OC(=O)C=C)ccc3c2)c1`, the melting point was 75.4 °C.
For `COC(=O)c1cc2c3ccccc3n(S(=O)(=O)c3ccccc3)c2s1`, the melting point was 195 to 197 °C.
`NC(=O)N(O)C[C@H]1C[C@@H](c2ccc(C(F)(F)F)cc2)C1` showed a melting point of 144 to 146 °C.
In the case of `COc1cc2cc3ncc(C#N)c(Nc4ccc(Cl)cc4Cl)c3cc2cc1OC`, the melting point is reported as 271 to 273 °C.
`Cn1c(=O)[nH]c2cc(F)ccc21` gave a melting point of 207 °C.
Work on `c1cc(-n2ccnc2)nc(-n2cnc3cc(-c4ccoc4)ccc32)c1` yielded a melting point of 170 to 173 °C.
`CCCOc1cc(CCCC2OC(=O)NC2=O)ccc1OCc1nc(-c2ccccc2)oc1C` (stereo unspecified) gave a melting point of 119 to 120 °C.
`N[C@@H](Cc1ccccc1C(F)(F)F)[C@H](O)c1ccc(F)cc1` (racemic) showed a melting point of 57 to 58 °C.
For `CCn1cc(C(=O)NN)c(=O)c2ccc(-c3ccncc3)cc21`, the melting point was 274 to 275 °C.
With `Nc1nc(O)c2c(n1)NCC(CCc1ccc(C(=O)N[C@@H](CCC(=O)O)C(=O)O)s1)C2` (stereo partly specified) the melting point was 204 to 230 °C.
For `O=C(Nc1ccc(Br)c2c1C(=O)c1ccccc1C2=O)c1ccccc1`, the melting point was 300 °C.
For `CC(C)C1(C#N)c2ccccc2C=CN1C(=O)c1ccccc1` (stereo unspecified), the melting point was 124 to 126 °C.
`Cc1cc(-c2noc(N(C)C)n2)ccc1-c1ccc(C(=O)N2CCCc3cc4c(cc32)C2(CCN(C)CC2)CO4)cc1` showed a melting point of 118 to 120 °C.
Work on `NCc1ccc(-n2c(-c3cccnc3N)nc3ccc(-c4ccccc4)nc32)cc1` yielded a melting point of 215 to 218 °C.
Compound `COCCOC(=O)C1=C(C)NC(C)=C(C(=O)OCCOC)C1c1ccccc1OC(F)F` has a melting point of 94 to 95 °C.
In the case of `CC(C)Cn1c(CO)c(-c2ccc(F)cc2)c2cc(OCc3ccccc3)ccc2c1=O`, the melting point is reported as 143 to 144 °C.
For `N#Cc1cc([N+](=O)[O-])ccc1Oc1ccc(C(=O)c2ccccc2)cc1`, the melting point was 180 °C.
Work on `CSc1c(Cl)ccc(C(=O)O)c1SC` yielded a melting point of 130 to 131 °C.
In the case of `Cn1c(=O)c(C#N)c(N2CCN(C(=O)c3cccs3)CC2)c2cc(F)ccc21`, the melting point is reported as 286 °C.
`CC(=O)OCC1OC(c2nc(C(N)=O)cs2)C(OC(C)=O)C1OC(C)=O` (stereo unspecified) showed a melting point of 103 °C.
`CCCc1cn(CC(=O)OCC)nc1OCc1ccc2ccccc2n1` gave a melting point of 82 to 83 °C.
`COc1ccc(C(=NO)c2c(F)cccc2F)c(Cl)c1Cl` gave a melting point of 180 to 186 °C.
Work on `CCNC(=O)C1OC(n2cnc3c(NCc4ccc(O)cc4)ncnc32)C(O)C1O` (stereo unspecified) yielded a melting point of 180 °C.
Work on `CC(C)C[C@H](NC(=O)Nc1cccc2ccccc12)C(=O)N[C@H]1CCOC1=O` yielded a melting point of 213 to 214 °C.
`COc1ccccc1[C@@]1(O)C[C@@H](C)C[C@@H]2CN(Cc3ccccc3)C[C@@H]21` (racemic) showed a melting point of 120 °C.
Compound `COC(=O)c1cc(N=NN(C)C)cs1` has a melting point of 90 to 92 °C.
With `CC(=O)OC1(C(C)=O)C(C)CC2C3CC(C)C4=CC(=O)C=CC4(C)C3(Br)C(O)CC21C` (stereo unspecified) the melting point was 184 to 185 °C.
For `Nc1ccc(Oc2cc(Cl)ncn2)cc1`, the melting point was 136 to 138 °C.
With `N#Cc1ccc(-c2ccc(-c3ccc(C#N)o3)cc2)cc1` the melting point was 216 to 218 °C.
`CCOc1ccc(Nc2ccc(Nc3ccc(OCC)cc3)c3c2C(=O)c2c(Nc4ccc(OCC)cc4)ccc(Nc4ccc(OCC)cc4)c2C3=O)cc1` showed a melting point of 173 to 175 °C.
In the case of `NS(=O)(=O)c1ccc(S(=O)(=O)CCCO)c(C(=O)O)c1`, the melting point is reported as 170 °C.
With `CCC(C)c1ccccc1N1C(=O)CS/C1=N\C(=O)Nc1ccc(-c2ncn(-c3ccc(OC(F)(F)F)cc3)n2)cc1` (stereo unspecified) the melting point was 169 to 177 °C.
For `Nc1ccc(-c2nc3c(F)cccc3s2)cc1`, the melting point was 219 to 221 °C.
For `CCCc1c(OCCCSc2nc3ccc(C(=O)O)cc3[nH]2)ccc(C(C)=O)c1O`, the melting point was 106 to 108 °C.
`COc1cc(CCl)c(CCl)cc1OCc1ccccc1` gave a melting point of 114 to 116 °C.
With `CSc1nc(-c2ccccn2)n(-c2ccc(C)c(C)c2)c(=O)c1C#N` the melting point was 218 to 223 °C.
Work on `Cc1c(F)c(N2CCNCC2)c(Cl)c2c1c(=O)c(C(=O)O)cn2C1CC1` yielded a melting point of 234 to 235 °C.
Work on `COc1cc(OC)c2c(=O)[nH]c(-c3ccc(OCCN(C(=O)OC(C)(C)C)C(C)C)c(-c4ccc(S(C)=O)cc4)n3)nc2c1` (stereo unspecified) yielded a melting point of 114 to 116 °C.
`COc1ccc2[nH]c(C=Cc3ccccc3Cl)cc2c1` showed a melting point of 135 to 137 °C.
`COc1cc(C2CCN(C[C@H](Oc3ncc4ccc(-c5ccccc5OC)n4n3)C(F)(F)F)CC2)ccc1N` gave a melting point of 73 to 82 °C.
`O=C(OC1CCCCC1=O)c1ccccc1` (stereo unspecified) gave a melting point of 81 to 83 °C.
For `COc1cccc(N(CCN2CCC(C(=O)c3ccc(F)cc3)CC2)C(=O)c2ccc(NC(N)=O)cc2)c1`, the melting point was 123 to 128 °C.
`CCOC(=O)C(C#N)=NC(=CN1CCOCC1)CC` showed a melting point of 127 to 128 °C.
`COC(=O)C=Cc1cnc(SC)nc1N` gave a melting point of 192 to 196 °C.
For `CCCCc1nc(Cl)c(CO)n1Cc1ccc(Oc2ccccc2C(=O)O)cc1`, the melting point was 178 to 180 °C.
`Nc1ccc(Oc2cccc3ccccc23)nc1` gave a melting point of 82.2 to 83.7 °C.
`Cc1ncc2cc(-c3c(Cl)cccc3Cl)c(NC(=O)N(C)C)nc2n1` gave a melting point of 177 to 181 °C.
For `CCC(Oc1ccccc1Br)C(=O)O` (stereo unspecified), the melting point was 102 °C.
With `Cc1cccc(NC(=O)c2cc(=O)[nH]c3ccc(C(=O)c4ccc(Cl)cc4)cc23)c1` the melting point was 230 °C.
Work on `CC(C)c1[nH]n(-c2c(Cl)cc(Cl)cc2Cl)c2nc(Cc3ccc(NC(=O)OCCCN(C)C)cc3)nc(=O)c1-2` yielded a melting point of 200 to 202 °C.
`CCCCOc1ccc(C(=O)Nc2ccc3ccc(Cl)nc3n2)cc1` gave a melting point of 140 °C.
`COC(=O)c1ccc(Cl)c([N+](=O)[O-])c1Cl` gave a melting point of 72 to 74 °C.
`Cc1ccc(S(=O)(=O)O[C@H](C)COc2c(N)ccc(F)c2F)cc1` gave a melting point of 37 to 38 °C.
Work on `O=C(Nc1cc(S(=O)(=O)NC(CO)CO)sc1Cl)c1cnn2c(C(F)F)cc(-c3ccc(C(F)(F)F)cc3)nc12` yielded a melting point of 241 °C.
In the case of `Cc1c(Cl)c(=O)n(-c2cc(C(=O)OC(C)C)c(Cl)cc2F)c(=O)n1C`, the melting point is reported as 150 to 153 °C.
`Cc1nc(N2CCCN(Cc3ccc(F)cc3)C2=O)sc1C(=O)NCc1cccnc1` gave a melting point of 48 to 50 °C.
Compound `CC(C)(C)OC(=O)CC(=O)c1cc2ccccc2cc1O` has a melting point of 80 to 84 °C.
`CC(=O)OC(c1nc2c(C(F)(F)F)cccc2c(O)c1C(=O)Nc1ccccn1)C(C)C` (stereo unspecified) showed a melting point of 230 °C.
`O=C1OCc2cc(CO)ccc21` gave a melting point of 126 °C.
For `CCCCc1nc2c(N)nc3ccc(OCCC4CCN(S(C)(=O)=O)CC4)cc3c2n1C`, the melting point was 198 to 200 °C.
In the case of `Cc1nc(-c2nc(=O)c3ccccc3s2)cs1`, the melting point is reported as 219 to 220 °C.
Compound `COCOc1ccccc1-c1nc(N)c(C#N)c(-c2cccc([N+](=O)[O-])c2)c1C` has a melting point of 154 to 155 °C.
Work on `CC(NC1(C(=O)O)CCCC1)C(=O)N1CCCC1C(=O)O` (stereo unspecified) yielded a melting point of 142 to 145 °C.
`CCOc1cc(Cn2cc(CCC(=O)O)c(-c3ccccc3)c2)cc(OCc2csc(-c3ccccc3)n2)c1` showed a melting point of 109 to 110 °C.
`COc1ccc(-c2c(Cl)c(CN3C(=O)CSC3=O)nc3sc4c(c23)CC[C@H](C(N)=O)C4)cc1` showed a melting point of 145 to 148 °C.
`CCc1ncnc(N[C@H]2CS[C@@H](c3ccc(C)cc3)SC2)c1Cl` showed a melting point of 138 to 139 °C.
`COc1ccc(C#Cc2ccc(C(=O)O)s2)cc1C12CC3CC(CC(C3)C1)C2` gave a melting point of 244 to 245 °C.
`CC(=O)OCC(=O)C12OCOC1CC1C3CCC4=CC(=O)CCC4(C)C3(Cl)C(O)CC12C` (stereo unspecified) showed a melting point of 231 °C.
With `COC(=O)Nc1cn2cc(S(=O)c3ccccc3)ccc2n1` (stereo unspecified) the melting point was 247 to 248 °C.
In the case of `CCS(=O)(=O)Nc1cccc(C(=C(C)C)c2c[nH]cn2)c1`, the melting point is reported as 152 to 155 °C.
Compound `O=C(OI(OC(=O)C(F)(F)F)C(F)(F)C(F)(F)C(F)(F)C(F)(F)C(F)(F)C(F)(F)F)C(F)(F)F` has a melting point of 60 to 62 °C.
Work on `CC(=O)Nc1cccc(-c2nc(=O)c3ccccc3s2)c1` yielded a melting point of 241 to 242 °C.
`CC(NC(=O)C1C(CO)N(Cc2ccccc2)C(=O)N1Cc1ccccc1)c1ccc2ccccc2c1` (stereo unspecified) showed a melting point of 170 to 175 °C.
`N#Cc1cccc(NC(=O)NC2N=C(c3ccccc3F)c3ccccc3N(CC(=O)N3CC4CCC(CC4)C3)C2=O)c1` (racemic) showed a melting point of 188 to 195 °C.
Compound `CNC(=O)c1cccc(NC(=O)COc2ccccc2OC)c1` has a melting point of 133 °C.
Work on `CCCCOc1ccc2cc(C(C)NC(N)=O)ccc2c1` (stereo unspecified) yielded a melting point of 135 to 137 °C.
For `CN(C)c1c([N+](=O)[O-])c(C(C)(C)C)nn1-c1c(Cl)cc(C(F)(F)F)cc1Cl`, the melting point was 81 to 83 °C.
`O=C(CCCN1CCN(c2ccccn2)CC1)c1cccnc1` showed a melting point of 89 °C.
Work on `O=C(O)C(O)COc1ccc(Cl)cc1` (stereo unspecified) yielded a melting point of 135 to 136 °C.
`NNc1ccc2c(=O)n(Cc3ccccc3)cnc2c1` gave a melting point of 165 to 169 °C.
Work on `COc1ccc(-c2cc(C)c3nc(OC)ccc3c2)cc1` yielded a melting point of 104 to 106 °C.
Compound `Cc1cc(Cc2c(F)cc(N)cc2F)n(C)c1C(=O)c1ccc(Cl)cc1` has a melting point of 208 to 210 °C.
Work on `CC1(O)CC(=O)OC(C=Cc2cccc(OCc3ccccc3)c2)C1` (stereo unspecified) yielded a melting point of 122 to 124 °C.
`COC(=O)c1ccc(OC)c(C=O)c1` showed a melting point of 98 to 102 °C.
For `CCCCc1nc(Cl)c(COC)n1Cc1ccc(-c2ccccc2Cc2nnn[nH]2)cc1`, the melting point was 149 to 152 °C.
Work on `CC(Cn1ncnn1)n1nnc2cc3c(=O)n(CC4CC4)nnc3cc2c1=O` (stereo unspecified) yielded a melting point of 134 to 136 °C.
With `COC(=O)c1nc2cc(C)cc(Cl)c2c(O)c1C(=O)OC` the melting point was 197 to 199 °C.
With `CCNC(=O)c1ccccc1Nc1nc(Nc2c(OC)ccc3c2CC(=O)N(CC)CC3)ncc1Cl` the melting point was 117 to 141 °C.
With `O=C(CC1NCCCC1O)Cn1cnc2cc(Br)c(Cl)cc2c1=O` (stereo unspecified) the melting point was 205 °C.
